Read-outs that look alike come from different tables or passages of the source.
Columns and labels:
[1] = biological target: T1, HCV NS5B (Hepatitis C virus genotype 1b, UniProt Q9WMX2); assay: Inhibition of viral RNA-dependent RNA polymerase (RdRp), in vitro biochemical assay; parameters: species or system HCV genotype 1b virus (BB7); conditions: read-out: HCV pol-BB7 IC50
T1 construct: fusion protein, of which the carboxyl terminal 21 amino acids were removed to enhance its solubility; His tag (GSHHHHHH); made in house; host or cells: E. coli
In short: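 Purified recombinant NS5B from a genotype 1b consensus (BB7), His-tagged, E. coli-expressed, with the C-terminal 21 residues deleted. Inhibition of RdRp activity in vitro was measured, and IC50 is the concentration giving 50% inhibition.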

[2] = system: HCV replicon (BB7 sequence) in Huh-7-Clone A cells; assay: HCV replicon assay: ELISA of NS5A protein in replicon-containing cells (Inhibition of Viral RNA Replication); type: cell-based; conditions: Hepatitis C virus, read-out: Replicon
In short: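 Huh-7-Clone A cells carrying subgenomic BB7 HCV replicon (G418-selectable) incubated 72 h with compound. NS5A protein quantified by cell ELISA: glutaraldehyde fixation, anti-NS5A monoclonal plus HRP secondary, TMB read at OD 650 nm. EC50 derived from 8-point serial dilution dose curve.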

[3] = purified His-tagged NS5B (BB7), carboxyl terminal 21 amino acids removed
[4] = Huh-7-Clone A, NS5A ELISA, 72-hour incubation, ranges of EC50
[5] = ranges of EC50 in HCV replicon assay

Row | Compound | IC50 [1, 3] | EC50 [2, 4] | IC50 ([1]; HCV NS5B RdRp, BB7 genotype 1b) | EC50 [2, 5]
1 | CNC(=O)c1c(-c2ccc(C)cc2)oc2ccc(Cl)cc12 [Example 75, 5-Chloro-2-p-tolyl-benzofuran-3-carboxylic acid methylamide] | ≤ 0.5 µM | < 10 µM | – | –
2 | CNC(=O)c1c(-c2ccc(F)c(Cl)c2)oc2ccc(OC)cc12 [Example 76, 2-(3-Chloro-4-fluoro-phenyl)-5-methoxy-benzofuran-3-carboxylic acid methylamide] | 0.5 to 5 µM | < 10 µM | – | –
3 | CNC(=O)c1c(-c2ccc(Cl)c(F)c2)oc2ccc(OC)cc12 [Example 77, 2-(4-Chloro-3-fluoro-phenyl)-5-methoxy-benzofuran-3-carboxylic acid methylamide] | ≤ 0.5 µM | < 10 µM | – | –
4 | CNC(=O)c1c(-c2ccccc2)oc2ccc(COC)cc12 [Example 78, 5-Methoxymethyl-2-phenyl-benzofuran-3-carboxylic acid methylamide] | 0.5 to 5 µM | < 30 µM | – | –
5 | CNC(=O)c1c(-c2ccc(F)cc2)oc2cc(C)c(OC(C)C)cc12 [Example 79, 2-(4-Fluoro-phenyl)-5-isopropoxy-6-methyl-benzofuran-3-carboxylic acid methylamide] | ≤ 0.5 µM | < 10 µM | – | –
6 | CNC(=O)c1c(-c2ccc(F)cc2)oc2c(C)cc(OC(C)C)cc12 [Example 80, 2-(4-Fluoro-phenyl)-5-isopropoxy-7-methyl-benzufuran-3-carboxylic acid methylamide] | 0.5 to 5 µM | < 30 µM | – | –
7 | CNC(=O)c1c(-c2ccc(F)cc2)oc2cc(C)c(OC)cc12 [Example 81, 2-(4-Fluoro-phenyl)-5-methoxy-6-methyl-benzofuran-3-carboxylic acid methylamide] | ≤ 0.5 µM | < 10 µM | – | –
8 | CNC(=O)c1c(-c2ccc(F)cc2)oc2ccc(F)cc12 [Example 82, 5-Fluoro-2-(4-fluoro-phenyl)-benzofuran-3-carboxylic acid methylamide] | 0.5 to 5 µM | < 30 µM | – | –
9 | CCc1ccc(-c2oc3ccc(F)cc3c2C(=O)NC)cc1 [Example 83, 2-(4-Ethyl-phenyl)-5-fluoro-benzofuran-3-carboxylic acid methylamide] | ≤ 0.5 µM | < 10 µM | – | –
10 | CCc1ccc2oc(-c3ccccc3)c(C(=O)NC)c2c1 [Example 84, 5-Ethyl-2-phenyl-benzofuran-3-carboxylic acid methylamide] | 0.5 to 5 µM | < 30 µM | – | –
11 | CNC(=O)c1c(-c2ccc(Cl)s2)oc2ccc(OC)cc12 [Example 85, 2-(5-Chloro-thiophen-2-yl)-5-methoxy-benzofuran-3-carboxylic acid methylamide] | ≤ 0.5 µM | < 10 µM | – | –
12 | CNC(=O)c1c(-c2ccccc2)oc2ccc(C(C)C)cc12 [Example 86, 5-Isopropyl-2-phenyl-benzofuran-3-carboxylic acid methylamide] | ≤ 0.5 µM | < 10 µM | – | –
13 | CCOc1ccc2oc(-c3ccc(Cl)s3)c(C(=O)NC)c2c1 [Example 87, 2-(5-Chloro-thiophen-2-yl)-5-ethoxy-benzofuran-3-carboxylic acid methylamide] | ≤ 0.5 µM | < 10 µM | – | –
14 | CNC(=O)c1c(-c2cccs2)oc2ccc(OC)cc12 [Example 88, 5-Methoxy-2-thiophen-2-yl-benzofuran-3-carboxylic acid methylamide] | 0.5 to 5 µM | < 30 µM | – | –
15 | CNC(=O)c1c(-c2cccnc2)oc2ccc(Cl)cc12 [Example 89, 5-Chloro-2-pyridin-3-yl-benzofuran-3-carboxylic acid methylamide] | 0.5 to 5 µM | > 30 µM | – | –
16 | CNC(=O)c1c(-c2ccc(Br)c(F)c2)oc2ccc(OC(C)C)cc12 [Example 90, 2-(4-Bromo-3-fluoro-phenyl)-5-isopropoxy-benzofuran-3-carboxylic acid methylamide] | – | – | ≤ 0.5 µM | < 10 µM
17 | CNC(=O)c1c(-c2ccc(F)cc2)oc2cc(Br)c(OC(C)C)cc12 [Example 92, 6-Bromo-2-(4-fluoro-phenyl)-5-isopropoxy-benzofuran-3-carboxylic acid methylamide] | – | – | ≤ 0.5 µM | < 1 µM

Source: patent publication US7265152B2 (ViroPharma Incorporated, priority 2002, dated 2007)
